According to article PMC8951016, “Computational Design and Biological Evaluation of Analogs of Lupin Peptide P5 Endowed with Dual PCSK9/HMG-CoAR Inhibiting Activity” (Pharmaceutics, 2022):

Tests used:
[1] = target: T1, HMG-CoAR (catalytic domain) (Homo sapiens, UniProt P04035); settings: parent peptide; read-out: IC50, HMG-CoAR activity (P5); cited from earlier work
T1 construct: finally the HMG-CoAR (cata- lytic domain) (2 µL); purchased Sigma-Aldrich
T1 sequence (P04035 426-888 limits assumed): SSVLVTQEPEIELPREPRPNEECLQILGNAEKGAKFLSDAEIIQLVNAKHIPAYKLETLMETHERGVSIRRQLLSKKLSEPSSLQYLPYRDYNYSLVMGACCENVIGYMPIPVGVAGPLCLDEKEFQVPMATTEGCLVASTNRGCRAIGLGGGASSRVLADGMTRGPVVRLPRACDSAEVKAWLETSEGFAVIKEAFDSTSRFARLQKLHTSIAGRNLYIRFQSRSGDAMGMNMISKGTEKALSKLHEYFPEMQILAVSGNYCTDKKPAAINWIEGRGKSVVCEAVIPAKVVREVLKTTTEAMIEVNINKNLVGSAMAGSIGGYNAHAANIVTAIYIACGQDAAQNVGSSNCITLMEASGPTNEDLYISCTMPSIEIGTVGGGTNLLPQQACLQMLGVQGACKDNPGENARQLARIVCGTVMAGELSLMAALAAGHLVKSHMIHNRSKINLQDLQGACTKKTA

PCSK9 = test: Western blot, PCSK9 protein level in HepG2; type: cell-based, human; settings: active at 50 µM in hepatic cells vs 250 µM; PCSK9 protein level and secretion
Procedure: A total of 1.5 × 10^5 HepG2 cells/well (24-well plate) were treated with 50 μM of P5 and P5 analogs for 24 h. Immunoblotting experiments were performed using optimized protocol. See Supplementary Materials for further details.
PBS for 1.5 h at RT. LDLR primary antibody solution (1:3000 in 5% BSA in PBS, 25 µL/well) was incubated O/N at +4 °C. Subsequently, the primary antibody solution was discarded and each sample was washed 5 times with 100 µL/well of PBS (each wash was for 5 min at RT). Goat anti-rabbit Ig-HRP secondary antibody solution (Santa Cruz) (1:6000 in 5% BSA in PBS, 50 µL/well), was added and incubated 1 h at RT. […] The reaction was stopped with 2 M H2SO4 and then the absorbance at 450 nm was measured using the microplate reader Synergy H1 (Winoo-ski, VT, USA). After the read, cells were stained by adding 1 X Janus Green stain, incubat-ing for 5 min at RT. […]
(§1) Afterward 100 µL 0.5 M HCl for well were added and incubated for 10 min. After 10 sec-onds shaking, the OD at 595 nm was measured using the microplate reader Synergy H1 […]
(§2) Fluorescent LDL Uptake. […] The degree of LDL uptake was measured using the Synergy H1 fluo-rescent plate reader (Winooski, VT, USA) (excitation and emission wavelengths 540 and 570 nm, respectively). Fluorescent LDL-uptake was finally assessed following optimized […]

[2] = test system: human intestinal Caco-2 cells; settings: cited from earlier work
PCSK9-LDLR = target: T2, PCSK9-LDLR (Homo sapiens, UniProt Q8NBP7); settings: parent peptide; read-out: IC50, PCSK9-LDLR binding (P5); cited from earlier work
T2 construct: purchased CycLex Co., Nagano, Japan (CircuLex)
T2 sequence (Q8NBP7 153-692): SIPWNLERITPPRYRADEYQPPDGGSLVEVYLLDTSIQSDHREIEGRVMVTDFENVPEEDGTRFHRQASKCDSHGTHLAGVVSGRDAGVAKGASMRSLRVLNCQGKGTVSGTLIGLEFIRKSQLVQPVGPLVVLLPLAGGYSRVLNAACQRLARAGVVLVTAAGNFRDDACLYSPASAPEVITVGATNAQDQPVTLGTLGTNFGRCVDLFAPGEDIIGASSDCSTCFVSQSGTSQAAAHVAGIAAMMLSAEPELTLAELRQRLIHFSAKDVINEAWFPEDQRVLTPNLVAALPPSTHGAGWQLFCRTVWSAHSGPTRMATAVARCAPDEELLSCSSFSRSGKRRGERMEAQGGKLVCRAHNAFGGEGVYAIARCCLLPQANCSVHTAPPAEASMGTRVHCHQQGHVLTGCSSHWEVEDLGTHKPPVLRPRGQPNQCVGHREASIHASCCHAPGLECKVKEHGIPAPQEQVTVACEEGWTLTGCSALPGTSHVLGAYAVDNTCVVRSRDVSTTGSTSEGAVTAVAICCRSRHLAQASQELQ
T2 sequence (Q8NBP7 31-152 partner limits assumed): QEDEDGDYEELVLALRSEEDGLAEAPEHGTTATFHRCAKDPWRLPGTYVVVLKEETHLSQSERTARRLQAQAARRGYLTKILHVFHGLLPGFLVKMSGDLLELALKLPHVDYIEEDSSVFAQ

LDL uptake, HepG2 cells = test: Fluorescent LDL uptake in HepG2 cells (peptide alone); type: cell-based, human; settings: 50 µM, vs control, average ± SD, four independent experiments in duplicate
Procedure: HepG2 cells (3 × 10^4/well) were seeded in 96-well plates and kept in complete growth medium for 2 days before treatment. The third day, cells were washed with PBS and then starved overnight (O/N) in DMEM without FBS and antibiotics. After starvation, they were treated with 4.0 μg/mL PCSK9 and 4.0 μg/mL PCSK9 + P5 and P5 analogs peptides (50 µM), and vehicle (H2O) for 2 h with at 37 °C under 5% CO2 atmosphere. Fluorescent LDL-uptake was finally assessed following optimized protocol. See Supplementary Materials for further details.
PBS for 1.5 h at RT. LDLR primary antibody solution (1:3000 in 5% BSA in PBS, 25 µL/well) was incubated O/N at +4 °C. […] The reaction was stopped with 2 M H2SO4 and then the absorbance at 450 nm was measured using the microplate reader Synergy H1 (Winoo-ski, VT, USA). After the read, cells were stained by adding 1 X Janus Green stain, incubat-ing for 5 min at RT. […]
as §1, §2

Sequence: LILPKHSDAD [Peptide P5, natural peptide derived from a peptic lupin protein hydrolysate]
- IC50 [1]: 147 µM
- fold potency vs YVVNPDNNEN (PCSK9): 5 -fold
- metabolism during Caco-2 transport [2]: partially metabolized in a breakdown fragment (LPKHSDAD, P5-met)
- transport by differentiated Caco-2 cells [2]: successfully transported
- IC50 (PCSK9-LDLR): 1.6 µM
- ability of HepG2 cells to uptake extracellular LDL (LDL uptake, HepG2 cells): 203.8 ± 40.67%
